Values joined by “and” are separate entries in the source; they are usually repeats but may differ in a detail not shown here. Identical values can stand only once. Inconclusive results are not listed.
Tested on: BDF1 mice, s.c. Lewis lung carcinoma, T/C %
Test: NCI In Vivo Anticancer Drug Screen. Data for tumor model Lewis Lung Carcinoma (subcutaneous) in B6D2F1 (BDF1) mice
Summary of the method: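 The value reflects a ratio in which the treated cohort's survival time or tumour size is compared against mice receiving only vehicle.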

## CCNC1=C(N2CC2)C(=O)C(NCC)=C(N2CC2)C1=O
endpoint: median survival time, dose: 0.37 mg/kg/injection, schedule: Q01DX009 (ip), vehicle: saline, higher = longer survival
  T/C: 115 % of control
endpoint: median survival time, dose: 0.75 mg/kg/injection, schedule: Q01DX009 (ip), vehicle: saline, higher = longer survival
  T/C: 121 % of control

## NCCc1ccc(O)c(O)c1
endpoint: median survival time, dose: 37.0 mg/kg/injection, schedule: Q01DX009 (ip), vehicle: saline, higher = longer survival
  T/C: 119 % of control
endpoint: median survival time, dose: 75.0 mg/kg/injection, schedule: Q01DX009 (ip), vehicle: saline, higher = longer survival
  T/C: 109 % of control
endpoint: median survival time, dose: 150.0 mg/kg/injection, schedule: Q01DX009 (ip), vehicle: saline, higher = longer survival
  T/C: 88 % of control
endpoint: median survival time, dose: 600.0 mg/kg/injection, schedule: Q01DX009 (ip), vehicle: saline, higher = longer survival
  T/C: 107 % of control

## O=C(Nc1ccc2c(c1)Cc1cccc(NC(=O)C(Cl)Cl)c1-2)C(Cl)Cl
endpoint: mean tumor weight, dose: 45.0 mg/kg/injection, schedule: Q01DX011 (ip), vehicle: carboxymethylcellulose (CMC), higher = larger tumour
  T/C: 72 % of control

## [N-]=[N+]=CC(=O)CCC(N)C(=O)O (stereo not given)
endpoint: median survival time, dose: 0.1 mg/kg/injection, schedule: Q01DX009 (ip), vehicle: saline, higher = longer survival
  T/C: 121 % of control
endpoint: median survival time, dose: 0.2 mg/kg/injection, schedule: Q01DX009 (ip), vehicle: saline, higher = longer survival
  T/C: 110 % of control
endpoint: median survival time, dose: 94.0 mg/kg/injection, schedule: Q01DX001 (ip), vehicle: saline, higher = longer survival
  T/C: 120 % of control
endpoint: median survival time, dose: 210.0 mg/kg/injection, schedule: Q01DX001 (ip), vehicle: saline, higher = longer survival
  T/C: 107 % of control

## CC1(C)OCC(CO)(Nc2nc(N3CC3)nc(N3CC3)n2)CO1
endpoint: median survival time, dose: 0.62 mg/kg/injection, schedule: Q01DX009 (ip), vehicle: saline, higher = longer survival
  T/C: 100 % of control and 119 % of control
endpoint: median survival time, dose: 1.25 mg/kg/injection, schedule: Q01DX009 (ip), vehicle: saline, higher = longer survival
  T/C: 115 % of control and 116 % of control
endpoint: median survival time, dose: 2.5 mg/kg/injection, schedule: Q01DX009 (ip), vehicle: saline, higher = longer survival
  T/C: 112 % of control

## Nc1ccccc1N
endpoint: median survival time, dose: 25.0 mg/kg/injection, schedule: Q02DX009 (ip), vehicle: saline with Tween-80, higher = longer survival
  T/C: 112 % of control
endpoint: median survival time, dose: 50.0 mg/kg/injection, schedule: Q02DX009 (ip), vehicle: saline with Tween-80, higher = longer survival
  T/C: 118 % of control
endpoint: median survival time, dose: 100.0 mg/kg/injection, schedule: Q02DX009 (ip), vehicle: saline with Tween-80, higher = longer survival
  T/C: 97 % of control
endpoint: median survival time, dose: 200.0 mg/kg/injection, schedule: Q02DX009 (ip), vehicle: saline with Tween-80, higher = longer survival
  T/C: 111 % of control

## C[C@]1(O)CC[C@H]2[C@@H]3CCC4=CC(=O)CC[C@]4(C)[C@@]3(F)[C@@H](O)C[C@@]21C
endpoint: median survival time, dose: 12.5 mg/kg/injection, schedule: Q02DX009 (ip), vehicle: Klucel (hydroxypropylcellulose) (HPC), higher = longer survival
  T/C: 103 % of control
endpoint: median survival time, dose: 25.0 mg/kg/injection, schedule: Q02DX009 (ip), vehicle: Klucel (hydroxypropylcellulose) (HPC), higher = longer survival
  T/C: 93 % of control
endpoint: median survival time, dose: 50.0 mg/kg/injection, schedule: Q02DX009 (ip), vehicle: Klucel (hydroxypropylcellulose) (HPC), higher = longer survival
  T/C: 87 % of control
endpoint: median survival time, dose: 100.0 mg/kg/injection, schedule: Q02DX009 (ip), vehicle: Klucel (hydroxypropylcellulose) (HPC), higher = longer survival
  T/C: 109 % of control
endpoint: median survival time, dose: 200.0 mg/kg/injection, schedule: Q02DX009 (ip), vehicle: Klucel (hydroxypropylcellulose) (HPC), higher = longer survival
  T/C: 103 % of control
endpoint: median survival time, dose: 400.0 mg/kg/injection, schedule: Q02DX009 (ip), vehicle: Klucel (hydroxypropylcellulose) (HPC), higher = longer survival
  T/C: 96 % of control

## O=c1cc(-c2ccc(O)cc2)oc2c(O)c(O)c(O)c(O)c12
endpoint: mean tumor weight, dose: 50.0 mg/kg/injection, schedule: Q01DX011 (ip), vehicle: saline, higher = larger tumour
  T/C: 70 % of control
endpoint: mean tumor weight, dose: 100.0 mg/kg/injection, schedule: Q01DX011 (ip), vehicle: saline, higher = larger tumour
  T/C: 73 % of control
endpoint: mean tumor weight, dose: 200.0 mg/kg/injection, schedule: Q01DX011 (ip), vehicle: saline, higher = larger tumour
  T/C: 43 % of control

## CCOC(=O)C(=CNc1cccc(Cl)c1)C(=O)OCC
endpoint: mean tumor weight, dose: 148.0 mg/kg/injection, schedule: Q01DX011 (ip), vehicle: other, higher = larger tumour
  T/C: 153 % of control
endpoint: mean tumor weight, dose: 222.0 mg/kg/injection, schedule: Q01DX011 (ip), vehicle: other, higher = larger tumour
  T/C: 113 % of control

## COc1cc(C=Nc2ccc(-c3nc(Cc4ccccc4)sc3C)cc2)ccc1N(CCCl)CCCl
endpoint: median survival time, dose: 12.5 mg/kg/injection, schedule: Q01DX009 (ip), vehicle: Klucel (hydroxypropylcellulose) (HPC), higher = longer survival
  T/C: 90 % of control
endpoint: median survival time, dose: 25.0 mg/kg/injection, schedule: Q01DX009 (ip), vehicle: Klucel (hydroxypropylcellulose) (HPC), higher = longer survival
  T/C: 110 % of control

## C(/C=C/C=C/N1CCCCC1)=[N+]1CCCCC1
endpoint: median survival time, dose: 0.13 mg/kg/injection, schedule: Q01DX009 (ip), vehicle: saline, higher = longer survival
  T/C: 101 % of control
endpoint: median survival time, dose: 0.25 mg/kg/injection, schedule: Q01DX009 (ip), vehicle: saline, higher = longer survival
  T/C: 110 % of control
endpoint: median survival time, dose: 0.5 mg/kg/injection, schedule: Q01DX009 (ip), vehicle: saline, higher = longer survival
  T/C: 117 % of control
endpoint: median survival time, dose: 1.0 mg/kg/injection, schedule: Q01DX009 (ip), vehicle: saline, higher = longer survival
  T/C: 110 % of control

Reference: PubChem BioAssay AID270 (DTP/NCI, 2004)
